In patent US4293489A, “Derivatives of A-30912A nucleus” (Eli Lilly and Company, priority 1980, dated 1981):
Read-outs that look alike come from different tables or passages of the source. Starred links: 1 amine or outer side, 2 acyl side, 3 side chain; linkers in the order of their positions; H or OH if unused. Positions of bridges follow the written chain, without caps; N, C: chain ends. Non-standard residues stand in square brackets, D forms with d. Residues, ends and D or L forms follow the SMILES beside them. *: point of attachment. Orn(4R-OH,5R-OH) = O=C([C@H](C[C@@H](O)[C@@H](O)N[*:3])N[*:1])[*:2]; hTyr(3S-OH,4S-OH) = N[C@H](C(=O)O)[C@H](O)[C@@H](O)c1ccc(O)cc1; Pro(3S-OH,4S-Me) = C[C@H]1CN[C@H](C(=O)O)[C@H]1O; Benzoyl(4-octyloxy) = CCCCCCCCOc1ccc(C(=O)*)cc1; X2 = CCCCCCCCCCCCCCS(=O)(=O)c1ccc(C(=O)*)cc1; X24 = CCCCCCCCCCCCCCOc1cccc(C(=O)*)c1; X27 = CCCCCCCCCCCCOc1cccc(CC(=O)*)c1; X10 = CCCCCCCCCCCCOc1cccc(C(=O)*)c1; X1 = CCCCCCCCCCCCSc1ccc(C(=O)*)cc1; X11 = CCCCCCCCOc1ccc(OCC(=O)*)cc1; Hyp = O=C(O)[C@@H]1C[C@@H](O)CN1; X13 = CCCCCCCCOc1cccc(C(=O)*)c1

How the values were obtained:
Candida albicans A-26 [1] = assay: Therapeutic activity against Candida albicans A-26 infection in X-irradiated mice, lowest active dose; format: in vivo; conditions: A26, light or radiation study, sc
Protocol: (§1) The results of in vivo tests to evaluate the effectiveness of the compounds of Examples 3 and 4 against an infection caused by Candida albicans A-26 in mice are given in Table 13, where activity is measured by the ED50 value (the dose in mg/kg. required to cure 50% of the test animals). In a separate test, the results of which are also summarized in Table 13, activity is indicated by the lowest dose at which a significant anti-fungal effect is observed. In this test, groups of male albino mice (specific pathogen free), weighing 18 to 20 grams, are infected intravenously with Candida albicans A-26. The animals are X-irradiated 24 hours prior to infection at about 50 roentgens per minute for 8 minutes (400 total dose) to reduce immune responses to the infecting organism. At 0, 4, and 24 hours post infection each group of mice is given graded doses subcutaneously of the test compound as a suspension in 33% polyethylene glycol (PEG)-water. The day of death for each animal is recorded.
(§2) *Dosage Schedules: A. = 40, 20, 15 and 10 mg/kg; Dosages given 0, 4, and
(§3) 24 hours post injection as suspension of test compound in 30% PEGH2
(§4) O. Number of mice receiving test compounds at each dosage level: 6 mice
(§5) per group. Number of mice in control (untreated) group: 10 mice per group

Candida albicans A-26 [2] = assay: Therapeutic activity against Candida albicans A-26 infection in mice, ED50; format: in vivo; conditions: Candida albicans, A26, sc, doses 0, 4 and 24 hours post infection, increase in survival time vs control, Reed-Muench, read-out: ED50
Protocol: as §1, §2, §3, §4, §5
**As measured by increase in survival time of treated animals versus
control, calculated by method of Reed v Mueuch, American J. Hygiene, 27,

[3] = X-irradiated mice, subcutaneous at 0, 4 and 24 hours post infection, survival, read-out: Lowest Active Dose
[4] = read-out: Lowest Active Dose, X-irradiated mice, subcutaneous at 0, 4 and 24 hours post infection, survival

SMILES	minimal effective dose (Candida albicans A-26 [1]; [3]) [mg/kg]	ED50 (Candida albicans A-26 [2]) [mg/kg]	minimal effective dose (Candida albicans A-26 [1]; [4]) [mg/kg]
CCCCCCCCCCCCCCOc1cccc(C(=O)N[C@H]2C[C@@H](O)[C@@H](O)NC(=O)[C@@H]3[C@@H](O)[C@@H](C)CN3C(=O)[C@H]([C@@H](C)O)NC(=O)[C@H]([C@H](O)[C@@H](O)c3ccc(O)cc3)NC(=O)[C@@H]3C[C@@H](O)CN3C(=O)[C@H]([C@@H](C)O)NC2=O)c1 (X24-[Orn(4R-OH,5R-OH)]T[Hyp][hTyr(3S-OH,4S-OH)]T[Pro(3S-OH,4S-Me)]; lactam 1-C)	> 40	> 50	
CCCCCCCCCCCCSc1ccc(C(=O)N[C@H]2C[C@@H](O)[C@@H](O)NC(=O)[C@@H]3[C@@H](O)[C@@H](C)CN3C(=O)[C@H]([C@@H](C)O)NC(=O)[C@H]([C@H](O)[C@@H](O)c3ccc(O)cc3)NC(=O)[C@@H]3C[C@@H](O)CN3C(=O)[C@H]([C@@H](C)O)NC2=O)cc1 [drawing 157] (X1-[Orn(4R-OH,5R-OH)]T[Hyp][hTyr(3S-OH,4S-OH)]T[Pro(3S-OH,4S-Me)]; lactam 1-C)	< 1.25	2	
CCCCCCCCCCCCOc1cccc(CC(=O)N[C@H]2C[C@@H](O)[C@@H](O)NC(=O)[C@@H]3[C@@H](O)[C@@H](C)CN3C(=O)[C@H]([C@@H](C)O)NC(=O)[C@H]([C@H](O)[C@@H](O)c3ccc(O)cc3)NC(=O)[C@@H]3C[C@@H](O)CN3C(=O)[C@H]([C@@H](C)O)NC2=O)c1 (X27-[Orn(4R-OH,5R-OH)]T[Hyp][hTyr(3S-OH,4S-OH)]T[Pro(3S-OH,4S-Me)]; lactam 1-C)	20	7.4	
CCCCCCCCOc1cccc(C(=O)N[C@H]2C[C@@H](O)[C@@H](O)NC(=O)[C@@H]3[C@@H](O)[C@@H](C)CN3C(=O)[C@H]([C@@H](C)O)NC(=O)[C@H]([C@H](O)[C@@H](O)c3ccc(O)cc3)NC(=O)[C@@H]3C[C@@H](O)CN3C(=O)[C@H]([C@@H](C)O)NC2=O)c1 [drawing 163] (X13-[Orn(4R-OH,5R-OH)]T[Hyp][hTyr(3S-OH,4S-OH)]T[Pro(3S-OH,4S-Me)]; lactam 1-C)	40	> 50	
CCCCCCCCOc1ccc(C(=O)N[C@H]2C[C@@H](O)[C@@H](O)NC(=O)[C@@H]3[C@@H](O)[C@@H](C)CN3C(=O)[C@H]([C@@H](C)O)NC(=O)[C@H]([C@H](O)[C@@H](O)c3ccc(O)cc3)NC(=O)[C@@H]3C[C@@H](O)CN3C(=O)[C@H]([C@@H](C)O)NC2=O)cc1 [drawing 151] ({Benzoyl(4-octyloxy)}-[Orn(4R-OH,5R-OH)]T[Hyp][hTyr(3S-OH,4S-OH)]T[Pro(3S-OH,4S-Me)]; lactam 1-C)	< 12.5		10
CCCCCCCCCCCCCCS(=O)(=O)c1ccc(C(=O)N[C@H]2C[C@@H](O)[C@@H](O)NC(=O)[C@@H]3[C@@H](O)[C@@H](C)CN3C(=O)[C@H]([C@@H](C)O)NC(=O)[C@H]([C@H](O)[C@@H](O)c3ccc(O)cc3)NC(=O)[C@@H]3C[C@@H](O)CN3C(=O)[C@H]([C@@H](C)O)NC2=O)cc1 [drawing 162] (X2-[Orn(4R-OH,5R-OH)]T[Hyp][hTyr(3S-OH,4S-OH)]T[Pro(3S-OH,4S-Me)]; lactam 1-C)		11	5
CCCCCCCCOc1ccc(OCC(=O)N[C@H]2C[C@@H](O)[C@@H](O)NC(=O)[C@@H]3[C@@H](O)[C@@H](C)CN3C(=O)[C@H]([C@@H](C)O)NC(=O)[C@H]([C@H](O)[C@@H](O)c3ccc(O)cc3)NC(=O)[C@@H]3C[C@@H](O)CN3C(=O)[C@H]([C@@H](C)O)NC2=O)cc1 [drawing 179] (X11-[Orn(4R-OH,5R-OH)]T[Hyp][hTyr(3S-OH,4S-OH)]T[Pro(3S-OH,4S-Me)]; lactam 1-C)		16.8	10
CCCCCCCCCCCCOc1cccc(C(=O)N[C@H]2C[C@@H](O)[C@@H](O)NC(=O)[C@@H]3[C@@H](O)[C@@H](C)CN3C(=O)[C@H]([C@@H](C)O)NC(=O)[C@H]([C@H](O)[C@@H](O)c3ccc(O)cc3)NC(=O)[C@@H]3C[C@@H](O)CN3C(=O)[C@H]([C@@H](C)O)NC2=O)c1 [drawing 165] (X10-[Orn(4R-OH,5R-OH)]T[Hyp][hTyr(3S-OH,4S-OH)]T[Pro(3S-OH,4S-Me)]; lactam 1-C)	> 40	> 50	
